Like-named read-outs stand apart in the source and are kept apart here.
Assays:
Experiment in all cases: selectivity profiling in a panel of 340 wild-type kinases (Reaction Biology Europe)
Format in all cases: binding
340 wild-type kinases [1] = target: T1, 340 wild-type kinases (Homo sapiens, UniProt P27448)
T1 construct: purchased Reaction Biology Europe

340 wild-type kinases [2] = target: T2, 340 wild-type kinases (Homo sapiens, UniProt Q9Y463)
T2 construct: purchased Reaction Biology Europe
T2 sequence (Q9Y463 whole entry): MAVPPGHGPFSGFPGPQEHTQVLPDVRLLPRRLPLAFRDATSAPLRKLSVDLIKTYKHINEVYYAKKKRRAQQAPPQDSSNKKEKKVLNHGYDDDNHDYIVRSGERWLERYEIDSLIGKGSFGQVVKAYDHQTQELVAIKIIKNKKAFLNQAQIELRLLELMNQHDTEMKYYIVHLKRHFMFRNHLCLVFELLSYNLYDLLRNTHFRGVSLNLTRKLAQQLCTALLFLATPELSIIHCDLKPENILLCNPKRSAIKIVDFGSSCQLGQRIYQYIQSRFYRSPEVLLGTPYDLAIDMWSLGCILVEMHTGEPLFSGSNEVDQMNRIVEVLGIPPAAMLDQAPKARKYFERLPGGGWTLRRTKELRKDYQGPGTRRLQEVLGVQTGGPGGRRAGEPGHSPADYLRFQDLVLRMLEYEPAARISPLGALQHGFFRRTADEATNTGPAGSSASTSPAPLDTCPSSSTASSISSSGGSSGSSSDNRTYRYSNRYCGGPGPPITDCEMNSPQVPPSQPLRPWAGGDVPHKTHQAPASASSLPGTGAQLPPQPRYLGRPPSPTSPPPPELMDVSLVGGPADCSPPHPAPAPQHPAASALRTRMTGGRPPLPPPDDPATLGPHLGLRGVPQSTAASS

340 wild-type kinases [3] = target: T3, 340 wild-type kinases (Homo sapiens, UniProt Q02156)
T3 construct: purchased Reaction Biology Europe
T3 sequence (Q02156 1-737): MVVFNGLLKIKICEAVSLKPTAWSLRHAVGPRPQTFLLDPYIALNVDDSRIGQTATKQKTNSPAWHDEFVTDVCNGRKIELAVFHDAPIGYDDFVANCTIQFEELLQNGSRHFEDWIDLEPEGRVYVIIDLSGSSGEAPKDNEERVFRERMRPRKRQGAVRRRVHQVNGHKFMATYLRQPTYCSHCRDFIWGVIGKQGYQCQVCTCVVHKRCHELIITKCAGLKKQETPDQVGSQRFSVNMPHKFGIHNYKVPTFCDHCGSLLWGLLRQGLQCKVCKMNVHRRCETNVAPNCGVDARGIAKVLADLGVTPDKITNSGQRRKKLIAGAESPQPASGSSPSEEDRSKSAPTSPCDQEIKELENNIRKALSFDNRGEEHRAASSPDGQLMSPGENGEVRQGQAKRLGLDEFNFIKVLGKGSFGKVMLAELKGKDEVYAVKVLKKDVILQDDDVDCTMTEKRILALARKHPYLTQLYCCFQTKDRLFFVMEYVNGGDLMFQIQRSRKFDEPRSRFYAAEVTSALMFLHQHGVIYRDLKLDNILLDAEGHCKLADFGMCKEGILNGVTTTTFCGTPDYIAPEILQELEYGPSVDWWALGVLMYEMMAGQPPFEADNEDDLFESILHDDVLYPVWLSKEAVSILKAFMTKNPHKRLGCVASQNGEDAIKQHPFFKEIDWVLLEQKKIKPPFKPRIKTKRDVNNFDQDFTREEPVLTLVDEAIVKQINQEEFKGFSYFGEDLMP

340 wild-type kinases [4] = target: T4, 340 wild-type kinases (Homo sapiens, UniProt Q08881)
T4 construct: purchased Reaction Biology Europe
T4 sequence (Q08881 1-620): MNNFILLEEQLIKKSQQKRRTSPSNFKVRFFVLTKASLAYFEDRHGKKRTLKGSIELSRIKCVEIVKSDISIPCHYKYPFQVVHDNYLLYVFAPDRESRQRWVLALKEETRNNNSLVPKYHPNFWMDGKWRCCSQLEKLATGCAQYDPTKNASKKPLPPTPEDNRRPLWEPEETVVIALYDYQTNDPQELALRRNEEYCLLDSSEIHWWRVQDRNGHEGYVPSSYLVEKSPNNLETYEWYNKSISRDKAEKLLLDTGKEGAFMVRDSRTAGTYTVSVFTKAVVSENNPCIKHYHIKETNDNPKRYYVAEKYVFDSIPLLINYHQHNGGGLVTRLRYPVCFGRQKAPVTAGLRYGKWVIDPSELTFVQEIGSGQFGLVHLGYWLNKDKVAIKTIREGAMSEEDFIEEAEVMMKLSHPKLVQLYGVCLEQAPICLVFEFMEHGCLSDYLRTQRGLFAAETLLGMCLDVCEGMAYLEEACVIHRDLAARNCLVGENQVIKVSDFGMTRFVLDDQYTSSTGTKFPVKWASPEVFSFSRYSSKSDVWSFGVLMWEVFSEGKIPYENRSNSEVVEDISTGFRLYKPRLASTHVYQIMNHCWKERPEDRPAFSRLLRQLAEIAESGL

340 wild-type kinases [5] = target: T5, 340 wild-type kinases (Homo sapiens, UniProt Q14004)
T5 construct: purchased Reaction Biology Europe
T5 sequence (Q14004 whole entry): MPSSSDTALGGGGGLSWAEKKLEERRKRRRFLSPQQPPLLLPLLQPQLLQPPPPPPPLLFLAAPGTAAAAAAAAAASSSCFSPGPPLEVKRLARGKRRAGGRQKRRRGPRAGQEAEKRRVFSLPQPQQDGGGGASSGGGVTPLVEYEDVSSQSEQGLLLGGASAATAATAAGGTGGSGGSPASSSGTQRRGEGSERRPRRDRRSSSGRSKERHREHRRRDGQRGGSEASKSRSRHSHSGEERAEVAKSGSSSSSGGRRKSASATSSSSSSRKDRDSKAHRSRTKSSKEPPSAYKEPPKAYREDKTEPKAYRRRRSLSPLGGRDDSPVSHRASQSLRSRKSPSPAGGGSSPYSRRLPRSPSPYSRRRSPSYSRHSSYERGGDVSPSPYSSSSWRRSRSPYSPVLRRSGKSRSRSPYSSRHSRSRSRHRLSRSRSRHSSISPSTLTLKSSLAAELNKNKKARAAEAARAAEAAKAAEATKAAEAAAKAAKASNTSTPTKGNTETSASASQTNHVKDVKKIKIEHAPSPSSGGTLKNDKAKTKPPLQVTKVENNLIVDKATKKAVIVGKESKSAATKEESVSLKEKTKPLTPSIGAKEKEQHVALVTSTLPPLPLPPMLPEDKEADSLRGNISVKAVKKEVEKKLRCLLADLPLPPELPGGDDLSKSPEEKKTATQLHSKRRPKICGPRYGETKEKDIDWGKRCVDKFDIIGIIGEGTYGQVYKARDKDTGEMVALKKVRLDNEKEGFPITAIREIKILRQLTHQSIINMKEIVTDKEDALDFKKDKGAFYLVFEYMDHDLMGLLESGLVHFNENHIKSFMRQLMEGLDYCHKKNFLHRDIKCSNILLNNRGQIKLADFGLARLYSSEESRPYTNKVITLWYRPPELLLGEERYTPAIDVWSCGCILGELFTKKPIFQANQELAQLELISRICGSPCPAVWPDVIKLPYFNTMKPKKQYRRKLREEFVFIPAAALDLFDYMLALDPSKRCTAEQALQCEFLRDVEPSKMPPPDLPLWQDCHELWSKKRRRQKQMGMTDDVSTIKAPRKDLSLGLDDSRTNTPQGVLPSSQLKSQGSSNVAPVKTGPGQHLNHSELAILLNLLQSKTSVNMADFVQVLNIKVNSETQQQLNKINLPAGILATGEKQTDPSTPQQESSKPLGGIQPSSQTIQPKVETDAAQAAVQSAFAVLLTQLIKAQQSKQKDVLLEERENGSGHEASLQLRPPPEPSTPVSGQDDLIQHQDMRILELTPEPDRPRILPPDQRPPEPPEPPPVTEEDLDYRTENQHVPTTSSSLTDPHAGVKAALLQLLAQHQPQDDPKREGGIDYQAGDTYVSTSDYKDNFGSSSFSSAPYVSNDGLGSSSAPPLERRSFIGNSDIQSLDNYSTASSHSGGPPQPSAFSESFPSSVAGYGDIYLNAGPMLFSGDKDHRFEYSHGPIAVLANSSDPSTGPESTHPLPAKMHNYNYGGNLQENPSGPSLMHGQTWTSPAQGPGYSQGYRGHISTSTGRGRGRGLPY

340 wild-type kinases [6] = target: T6, 340 wild-type kinases (Homo sapiens, UniProt Q6IQ55)
T6 construct: purchased Reaction Biology Europe
T6 sequence (Q6IQ55 whole entry): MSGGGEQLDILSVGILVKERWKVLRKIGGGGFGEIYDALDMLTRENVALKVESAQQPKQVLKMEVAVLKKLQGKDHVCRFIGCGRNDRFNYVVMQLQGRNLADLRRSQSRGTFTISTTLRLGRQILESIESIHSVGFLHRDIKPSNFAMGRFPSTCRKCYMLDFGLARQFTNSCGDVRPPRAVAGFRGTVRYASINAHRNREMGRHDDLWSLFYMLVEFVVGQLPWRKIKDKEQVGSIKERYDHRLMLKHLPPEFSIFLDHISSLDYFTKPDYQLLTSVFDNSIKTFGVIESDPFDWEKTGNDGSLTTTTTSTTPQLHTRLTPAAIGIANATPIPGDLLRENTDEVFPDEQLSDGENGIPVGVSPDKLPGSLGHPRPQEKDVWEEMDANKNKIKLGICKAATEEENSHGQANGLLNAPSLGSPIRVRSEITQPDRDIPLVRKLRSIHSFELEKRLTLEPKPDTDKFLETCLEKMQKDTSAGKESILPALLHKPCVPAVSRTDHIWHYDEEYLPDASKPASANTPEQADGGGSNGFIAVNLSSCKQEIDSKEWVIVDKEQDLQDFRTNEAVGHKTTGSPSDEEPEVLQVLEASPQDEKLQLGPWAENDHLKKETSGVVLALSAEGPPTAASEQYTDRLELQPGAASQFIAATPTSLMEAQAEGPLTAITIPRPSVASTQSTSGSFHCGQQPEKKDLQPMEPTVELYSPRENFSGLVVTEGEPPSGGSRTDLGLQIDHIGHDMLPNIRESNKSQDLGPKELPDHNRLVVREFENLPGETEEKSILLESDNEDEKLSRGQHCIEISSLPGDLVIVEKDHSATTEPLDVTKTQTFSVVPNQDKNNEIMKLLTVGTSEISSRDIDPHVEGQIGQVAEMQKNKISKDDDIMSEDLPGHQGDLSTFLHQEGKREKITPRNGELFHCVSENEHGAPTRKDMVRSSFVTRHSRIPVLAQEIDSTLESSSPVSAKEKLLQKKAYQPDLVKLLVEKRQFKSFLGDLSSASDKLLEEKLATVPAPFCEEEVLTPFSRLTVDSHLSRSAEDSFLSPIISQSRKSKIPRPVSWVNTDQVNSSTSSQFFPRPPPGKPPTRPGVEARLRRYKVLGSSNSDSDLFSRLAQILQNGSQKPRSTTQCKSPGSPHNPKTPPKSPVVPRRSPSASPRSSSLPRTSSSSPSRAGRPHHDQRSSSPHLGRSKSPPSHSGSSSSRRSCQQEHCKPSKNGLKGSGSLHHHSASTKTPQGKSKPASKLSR

340 wild-type kinases [7] = target: T7, 340 wild-type kinases (Homo sapiens, UniProt P36896)
T7 construct: purchased Reaction Biology Europe
T7 sequence (P36896 24-505): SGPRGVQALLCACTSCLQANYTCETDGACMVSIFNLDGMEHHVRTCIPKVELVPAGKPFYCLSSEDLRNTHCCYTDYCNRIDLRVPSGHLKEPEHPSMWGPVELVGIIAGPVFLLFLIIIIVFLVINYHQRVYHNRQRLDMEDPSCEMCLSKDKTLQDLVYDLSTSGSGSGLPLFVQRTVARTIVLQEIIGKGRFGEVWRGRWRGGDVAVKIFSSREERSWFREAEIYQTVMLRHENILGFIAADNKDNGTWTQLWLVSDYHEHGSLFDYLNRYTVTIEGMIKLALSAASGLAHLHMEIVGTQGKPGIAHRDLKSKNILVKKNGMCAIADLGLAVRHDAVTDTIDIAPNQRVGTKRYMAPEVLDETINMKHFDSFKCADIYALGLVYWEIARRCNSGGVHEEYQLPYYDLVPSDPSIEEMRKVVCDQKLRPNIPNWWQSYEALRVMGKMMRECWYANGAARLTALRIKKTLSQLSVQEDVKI

340 wild-type kinases [8] = target: T8, 340 wild-type kinases (Homo sapiens, UniProt Q8N568)
T8 construct: purchased Reaction Biology Europe
T8 sequence (Q8N568 whole entry): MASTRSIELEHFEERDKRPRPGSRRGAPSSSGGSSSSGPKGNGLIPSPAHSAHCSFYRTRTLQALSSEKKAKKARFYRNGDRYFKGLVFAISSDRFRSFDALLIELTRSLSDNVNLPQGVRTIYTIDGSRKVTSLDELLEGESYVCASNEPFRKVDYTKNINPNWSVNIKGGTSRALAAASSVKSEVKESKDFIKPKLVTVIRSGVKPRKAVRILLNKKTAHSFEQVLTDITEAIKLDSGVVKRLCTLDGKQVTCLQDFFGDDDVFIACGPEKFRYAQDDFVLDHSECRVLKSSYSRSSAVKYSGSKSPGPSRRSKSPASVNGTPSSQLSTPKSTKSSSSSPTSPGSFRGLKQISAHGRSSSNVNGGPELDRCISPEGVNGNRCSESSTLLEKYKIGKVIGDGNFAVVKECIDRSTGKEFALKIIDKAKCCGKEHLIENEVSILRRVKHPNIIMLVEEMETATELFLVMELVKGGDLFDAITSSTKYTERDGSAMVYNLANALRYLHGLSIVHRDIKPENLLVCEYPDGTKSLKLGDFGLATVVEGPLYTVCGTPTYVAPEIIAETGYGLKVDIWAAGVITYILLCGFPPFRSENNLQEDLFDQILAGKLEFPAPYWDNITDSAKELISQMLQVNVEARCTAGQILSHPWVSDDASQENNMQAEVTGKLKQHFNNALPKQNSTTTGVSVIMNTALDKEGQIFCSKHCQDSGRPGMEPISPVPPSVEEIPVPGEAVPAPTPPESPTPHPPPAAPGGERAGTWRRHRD

[9] = read-out: CDK13/CycK residual activity

T1 sequence (P27448 whole entry): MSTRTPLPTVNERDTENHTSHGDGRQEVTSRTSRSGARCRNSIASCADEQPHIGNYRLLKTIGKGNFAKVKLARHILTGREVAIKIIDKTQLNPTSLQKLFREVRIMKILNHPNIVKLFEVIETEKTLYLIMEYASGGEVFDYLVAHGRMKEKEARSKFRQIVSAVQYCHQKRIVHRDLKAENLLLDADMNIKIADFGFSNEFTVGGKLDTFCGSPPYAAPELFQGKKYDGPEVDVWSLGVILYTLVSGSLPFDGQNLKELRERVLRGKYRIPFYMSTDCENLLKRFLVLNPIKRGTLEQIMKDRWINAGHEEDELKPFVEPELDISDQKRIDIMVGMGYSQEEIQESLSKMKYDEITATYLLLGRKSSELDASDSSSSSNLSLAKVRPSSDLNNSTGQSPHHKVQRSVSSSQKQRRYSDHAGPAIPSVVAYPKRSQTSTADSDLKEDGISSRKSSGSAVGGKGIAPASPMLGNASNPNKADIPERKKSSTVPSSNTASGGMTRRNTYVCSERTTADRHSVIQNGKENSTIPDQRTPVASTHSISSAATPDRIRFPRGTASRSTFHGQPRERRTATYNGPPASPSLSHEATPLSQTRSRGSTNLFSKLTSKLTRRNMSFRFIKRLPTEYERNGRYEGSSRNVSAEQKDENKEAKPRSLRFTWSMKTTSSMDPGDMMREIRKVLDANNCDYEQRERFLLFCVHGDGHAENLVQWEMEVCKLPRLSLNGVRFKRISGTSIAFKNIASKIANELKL

SMILES: CNC(=O)c1ccc2c(c1)C(=O)c1ccc(Nc3ccc(F)c(NC(=O)C4CC4)c3)cc1CC2 [Compound 2015]
- remaining activity at 0.2 µM (340 wild-type kinases [1]; 0.2 µM 2015, read-out: MARK3 residual activity): 117%
- remaining activity at 1 µM (340 wild-type kinases [1]; 1 µM 2015, read-out: MARK3 residual activity): 100%
- remaining activity at 0.2 µM (340 wild-type kinases [1]; MARK3, 0.2 µM, read-out: residual activity): 117%
- remaining activity at 1 µM (340 wild-type kinases [1]; MARK3, 1 µM, read-out: residual activity): 100%
- remaining activity at 0.2 µM (340 wild-type kinases [2]; 0.2 µM 2015, read-out: DYRK1B residual activity): 96.9%
- remaining activity at 1 µM (340 wild-type kinases [2]; 1 µM 2015, read-out: DYRK1B residual activity): 94.1%
- remaining activity at 0.2 µM (340 wild-type kinases [2]; DYRK1B, 0.2 µM, read-out: residual activity): 96.9%
- remaining activity at 1 µM (340 wild-type kinases [2]; DYRK1B, 1 µM, read-out: residual activity): 94.1%
- remaining activity at 0.2 µM (340 wild-type kinases [3]; 0.2 µM 2015, read-out: PKCepsilon residual activity): 83.1%
- remaining activity at 1 µM (340 wild-type kinases [3]; 1 µM 2015, read-out: PKCepsilon residual activity): 90.5%
- remaining activity at 0.2 µM (340 wild-type kinases [3]; PKCepsilon, 0.2 µM, read-out: residual activity): 83.1%
- remaining activity at 1 µM (340 wild-type kinases [3]; PKCepsilon, 1 µM, read-out: residual activity): 90.5%
- remaining activity at 0.2 µM (340 wild-type kinases [4]; 0.2 µM 2015, read-out: ITK residual activity): 89.4%
- remaining activity at 1 µM (340 wild-type kinases [4]; 1 µM 2015, read-out: ITK residual activity): 87%
- remaining activity at 0.2 µM (340 wild-type kinases [4]; ITK, 0.2 µM, read-out: residual activity): 89.4%
- remaining activity at 1 µM (340 wild-type kinases [4]; ITK, 1 µM, read-out: residual activity): 87%
- remaining activity at 0.2 µM (340 wild-type kinases [5]; [9]): 87.3%
- remaining activity at 1 µM (340 wild-type kinases [5]; [9]): 86.5%
- remaining activity at 0.2 µM (340 wild-type kinases [5]; read-out: residual activity): 87.3%
- remaining activity at 1 µM (340 wild-type kinases [5]; read-out: residual activity): 86.5%
- remaining activity at 0.2 µM (340 wild-type kinases [6]; 0.2 µM 2015, read-out: TTBK2 residual activity): 115%
- remaining activity at 1 µM (340 wild-type kinases [6]; 1 µM 2015, read-out: TTBK2 residual activity): 118%
- remaining activity at 0.2 µM (340 wild-type kinases [6]; TTBK2, 0.2 µM, read-out: residual activity): 115%
- remaining activity at 1 µM (340 wild-type kinases [6]; TTBK2, 1 µM, read-out: residual activity): 118%
- remaining activity at 0.2 µM (340 wild-type kinases [7]; 0.2 µM 2015, read-out: ACVR1B residual activity): 101%
- remaining activity at 0.2 µM (340 wild-type kinases [7]; ACVR1B, 0.2 µM, read-out: residual activity): 101%
- remaining activity at 1 µM (340 wild-type kinases [7]; ACVR1B, 1 µM, read-out: residual activity): 86.1%
- remaining activity at 0.2 µM (340 wild-type kinases [8]; 0.2 µM 2015, read-out: DCAMKL2 residual activity): 102%
- remaining activity at 1 µM (340 wild-type kinases [8]; 1 µM 2015, read-out: DCAMKL2 residual activity): 86.3%
- remaining activity at 0.2 µM (340 wild-type kinases [8]; DCAMKL2, 0.2 µM, read-out: residual activity): 102%
- remaining activity at 1 µM (340 wild-type kinases [8]; DCAMKL2, 1 µM, read-out: residual activity): 86.3%
